Measurements from ChEMBL document CHEMBL3885861, “Open TG-GATES”.

Species on record: Rattus norvegicus
Assay: Open TG-GATES - Regimen: Daily Repeat
Format: toxicity, organism-based, Sprague-Dawley
Set-up: regimen Daily Repeat, gender Male, age 6 weeks
Conditions: in vivo, po, 30 mg/kg, route gavage, dose level Low; for APTT / Bas / Eos / Fbg / Hb / Ht / Lym / MCH / MCHC / MCV / Mono / Neu / PT / Plat / RBC / Ret / WBC: tissue Blood; for KIDNEY_L / KIDNEY_R / KIDNEY_TOTAL: tissue Kidney; for LIVER: tissue Liver; for A/G / ALP / ALT / AST / BUN / CRE / Ca / Cl / DBIL / GLC / IP / K / LDH / Na / PL / RALB / TBIL / TC / TG / TP / gamma-GTP: tissue Plasma

CC(=O)Nc1ccc2c(c1)Cc1ccccc1-2 [2-ACETYLAMINOFLUORENE]
TERMINAL_BW (72 h, time 3 day): 222.5 g | APTT (72 h, time 3 day): 18.9 s | Bas (72 h, time 3 day): 0.6% | Eos (72 h, time 3 day): 1% | Fbg (72 h, time 3 day): 226.6 mg/dL | Hb (72 h, time 3 day): 14.8 g/dL | Ht (72 h, time 3 day): 42.2% | Lym (72 h, time 3 day): 81% | MCH (72 h, time 3 day): 22.3 pg | MCHC (72 h, time 3 day): 35% | MCV (72 h, time 3 day): 63.7 fL | Mono (72 h, time 3 day): 2.8% | Neu (72 h, time 3 day): 14% | PT (72 h, time 3 day): 12.3 s | Plat (72 h, time 3 day): 131.4 x10_4/uL | RBC (72 h, time 3 day): 663 x10_4/ul | Ret (72 h, time 3 day): 4.1% | WBC (72 h, time 3 day): 118 x10_2/uL | KIDNEY_L (72 h, time 3 day): 1 g | KIDNEY_R (72 h, time 3 day): 1 g | KIDNEY_TOTAL (72 h, time 3 day): 2 g | LIVER (72 h, time 3 day): 10.6 g | A/G (72 h, time 3 day): 1.5 | ALP (72 h, time 3 day): 746.6 IU/L | ALT (72 h, time 3 day): 26.6 IU/L | AST (72 h, time 3 day): 69.2 IU/L | BUN (72 h, time 3 day): 12.4 mg/dL | CRE (72 h, time 3 day): 0.4 mg/dL | Ca (72 h, time 3 day): 10.3 mg/dL | Cl (72 h, time 3 day): 102.8 meq/L | DBIL (72 h, time 3 day): 0.086 mg/dL | GLC (72 h, time 3 day): 196.4 mg/dL | IP (72 h, time 3 day): 7.2 mg/dL | K (72 h, time 3 day): 4.1 meq/L | LDH (72 h, time 3 day): 241 IU/L | Na (72 h, time 3 day): 140.2 meq/L | PL (72 h, time 3 day): 100.8 mg/dL | RALB (72 h, time 3 day): 2.9 g/dL | TBIL (72 h, time 3 day): 0.1 mg/dL | TC (72 h, time 3 day): 50.2 mg/dL | TG (72 h, time 3 day): 77 mg/dL | TP (72 h, time 3 day): 5 g/dL | gamma-GTP (72 h, time 3 day): 1.2 IU/L | TERMINAL_BW ([…], time 7 day): 239.2 g | TERMINAL_BW ([…], time 14 day): 259.1 g | TERMINAL_BW ([…], time 28 day): 315.1 g | APTT ([…], time 7 day): 18.4 s | Bas ([…], time 7 day): 0.8% | Eos ([…], time 7 day): 1% | Fbg ([…], time 7 day): 204 mg/dL | Hb ([…], time 7 day): 15.4 g/dL | Ht ([…], time 7 day): 42.8% | Lym ([…], time 7 day): 82% | MCH ([…], time 7 day): 22.2 pg | MCHC ([…], time 7 day): 35.9% | MCV ([…], time 7 day): 61.9 fL | Mono ([…], time 7 day): 3% | Neu ([…], time 7 day): 12.6% | PT ([…], time 7 day): 13 s | Plat ([…], time 7 day): 159.6 x10_4/uL | RBC ([…], time 7 day): 692.2 x10_4/ul | Ret ([…], time 7 day): 1.8% | WBC ([…], time 7 day): 125.9 x10_2/uL | APTT ([…], time 14 day): 19.1 s | Bas ([…], time 14 day): 1% | Eos ([…], time 14 day): 0% | Fbg ([…], time 14 day): 102.2 mg/dL | Hb ([…], time 14 day): 14.7 g/dL | Ht ([…], time 14 day): 42% | Lym ([…], time 14 day): 79.8% | MCH ([…], time 14 day): 19.7 pg | MCHC ([…], time 14 day): 35% | MCV ([…], time 14 day): 56.3 fL | Mono ([…], time 14 day): 3.2% | Neu ([…], time 14 day): 15.6% | PT ([…], time 14 day): 14.9 s | Plat ([…], time 14 day): 144.2 x10_4/uL | RBC ([…], time 14 day): 747.2 x10_4/ul | Ret ([…], time 14 day): 1.8% | WBC ([…], time 14 day): 145.6 x10_2/uL | APTT ([…], time 28 day): 25.4 s | Bas ([…], time 28 day): 0.8% | Eos ([…], time 28 day): 0.6% | Fbg ([…], time 28 day): 78.2 mg/dL | Hb ([…], time 28 day): 14 g/dL | Ht ([…], time 28 day): 40.8% | Lym ([…], time 28 day): 67.6% | MCH ([…], time 28 day): 19 pg | MCHC ([…], time 28 day): 34.3% | MCV ([…], time 28 day): 55.4 fL | Mono ([…], time 28 day): 4.2% | Neu ([…], time 28 day): 26.4% | PT ([…], time 28 day): 19.2 s | Plat ([…], time 28 day): 102.7 x10_4/uL | RBC ([…], time 28 day): 735.6 x10_4/ul | Ret ([…], time 28 day): 5.3% | WBC ([…], time 28 day): 274.6 x10_2/uL | KIDNEY_L ([…], time 7 day): 1 g | KIDNEY_R ([…], time 7 day): 1 g | KIDNEY_TOTAL ([…], time 7 day): 2 g | KIDNEY_L ([…], time 14 day): 1.1 g | KIDNEY_R ([…], time 14 day): 1.1 g | KIDNEY_TOTAL ([…], time 14 day): 2.2 g | KIDNEY_L ([…], time 28 day): 1.3 g | KIDNEY_R ([…], time 28 day): 1.3 g | KIDNEY_TOTAL ([…], time 28 day): 2.6 g | LIVER ([…], time 7 day): 10.5 g | LIVER ([…], time 14 day): 9.9 g | LIVER ([…], time 28 day): 10.2 g | A/G ([…], time 7 day): 1.4 | ALP ([…], time 7 day): 1055.8 IU/L | ALT ([…], time 7 day): 35 IU/L | AST ([…], time 7 day): 88 IU/L | BUN ([…], time 7 day): 13.8 mg/dL | CRE ([…], time 7 day): 0.5 mg/dL | Ca ([…], time 7 day): 10.2 mg/dL | Cl ([…], time 7 day): 105.2 meq/L | DBIL ([…], time 7 day): 0.096 mg/dL | GLC ([…], time 7 day): 182.2 mg/dL | IP ([…], time 7 day): 6.4 mg/dL | K ([…], time 7 day): 3.9 meq/L | LDH ([…], time 7 day): 271 IU/L | Na ([…], time 7 day): 140.2 meq/L | PL ([…], time 7 day): 110.6 mg/dL | RALB ([…], time 7 day): 2.6 g/dL | TBIL ([…], time 7 day): 0.2 mg/dL | TC ([…], time 7 day): 44.4 mg/dL | TG ([…], time 7 day): 115 mg/dL | TP ([…], time 7 day): 4.4 g/dL | gamma-GTP ([…], time 7 day): 1.6 IU/L | A/G ([…], time 14 day): 1.3 | ALP ([…], time 14 day): 1040.6 IU/L | ALT ([…], time 14 day): 42 IU/L | AST ([…], time 14 day): 98.6 IU/L | BUN ([…], time 14 day): 13 mg/dL | CRE ([…], time 14 day): 0.5 mg/dL | Ca ([…], time 14 day): 9.4 mg/dL | Cl ([…], time 14 day): 104.6 meq/L | DBIL ([…], time 14 day): 0.5 mg/dL | GLC ([…], time 14 day): 171 mg/dL | IP ([…], time 14 day): 7.1 mg/dL | K ([…], time 14 day): 3.9 meq/L | LDH ([…], time 14 day): 211.2 IU/L | Na ([…], time 14 day): 141.2 meq/L | PL ([…], time 14 day): 102.4 mg/dL | RALB ([…], time 14 day): 2.2 g/dL | TBIL ([…], time 14 day): 0.7 mg/dL | TC ([…], time 14 day): 40.8 mg/dL | TG ([…], time 14 day): 43.8 mg/dL | TP ([…], time 14 day): 3.8 g/dL | gamma-GTP ([…], time 14 day): 1.4 IU/L | A/G ([…], time 28 day): 1 | ALP ([…], time 28 day): 883 IU/L | ALT ([…], time 28 day): 57.8 IU/L | AST ([…], time 28 day): 155.4 IU/L | BUN ([…], time 28 day): 17.2 mg/dL | CRE ([…], time 28 day): 0.4 mg/dL | Ca ([…], time 28 day): 8.5 mg/dL | Cl ([…], time 28 day): 103.6 meq/L | DBIL ([…], time 28 day): 3 mg/dL | GLC ([…], time 28 day): 130.6 mg/dL | IP ([…], time 28 day): 6.8 mg/dL | K ([…], time 28 day): 4.2 meq/L | LDH ([…], time 28 day): 252.2 IU/L | Na ([…], time 28 day): 140.2 meq/L | PL ([…], time 28 day): 120.2 mg/dL | RALB ([…], time 28 day): 1.7 g/dL | TBIL ([…], time 28 day): 3.8 mg/dL | TC ([…], time 28 day): 60.2 mg/dL | TG ([…], time 28 day): 30.2 mg/dL | TP ([…], time 28 day): 3.4 g/dL | gamma-GTP ([…], time 28 day): 25.4 IU/L
